EC50 data for one molecule are collected here from publication PMC6779273, “Emodepside has sex-dependent immobilizing effects on adult Brugia malayi due to a differentially spliced binding pocket in the RCK1 region of the SLO-1 K channel” (PLoS Pathogens, 2019).

Some results are limits rather than exact numbers.

The target of assay [1] is T1, Bma-SLO-1A (SLO-1 K channel, splice variant A) (Brugia malayi, UniProt A0A0H5S223).
T1 construct: full-length slo-1a splice variant
The assay is described as follows: two-electrode voltage clamp, Xenopus laevis oocytes expressing slo-1a (small but detectable outward current). In kind it is cell-based. From the text:
two-electrode voltage clamp, Xenopus laevis oocytes expressing slo-1a (small but detectable outward current) on Bma-SLO-1A (SLO-1 K channel, splice variant A) | When we expressed slo-1a, or slo-1a with slo-1f (Fig 4C & 4D), we found much smaller, but still detectable currents.

Assay [2] addresses T2, Bma-SLO-1F (SLO-1 K channel, splice variant F) (Brugia malayi, UniProt A0A0J9Y9H3).
T2 construct: full-length slo-1f splice variant
The assay is described as follows: two-electrode voltage clamp, Xenopus laevis oocytes expressing slo-1f (activation of outward current). In kind it is cell-based.

For the molecule `CC(C)C[C@H]1C(=O)O[C@H](Cc2ccc(N3CCOCC3)cc2)C(=O)N(C)[C@@H](CC(C)C)C(=O)O[C@H](C)C(=O)N(C)[C@@H](CC(C)C)C(=O)O[C@H](Cc2ccc(N3CCOCC3)cc2)C(=O)N(C)[C@@H](CC(C)C)C(=O)O[C@H](C)C(=O)N1C` [emodepside], the values for the EC50 in assay [1] and in assay [2] were over 30 µM and 5 ± 1 µM, respectively.
